Measurements taken from patent publication US20210169824A1, “USE OF CANNABINOIDS IN THE TREATMENT OF SEIZURES AS ASSOCIATED WITH LENNOX-GASTAUT SYNDROME” (GW Research Limited, priority 2017, published 2021).

Columns and labels:
[1] = system: seizures associated with Lennox-Gastaut syndrome (LGS) in treatment-resistant patients; experiment: Pooled analysis of two randomised, double-blind, placebo-controlled 14-week studies of add-on cannabidiol in LGS patients deemed AED treatment failures; type: in vivo, human; details: for Total Seizure Frequency, Treatment Difference vs. Placebo / Drop Seizure Frequency, Treatment Difference vs. Placebo: Hodges-Lehmann estimated median difference; for Drop Seizure Frequency, Median % Change During Treatment / Total Seizure Frequency, Median % Change During Treatment: from baseline
Text: In two placebo-controlled studies of CBD as a treatment for seizures associated with LGS, cannabidiol was used as add-on treatment in patients who were defined as treatment-resistant. Patients had previously tried and stopped using a median of 6 AEDs, and were being maintained on a median of 3 AEDs.
The first study was a 1:1 randomised, double-blind, 14-week comparison of cannabidiol oral solution (CBD-OS) versus placebo. The treatment period consisted of a two-week titration period followed by a 12-week maintenance period. The treatment period was followed by a 10-day taper period and a four-week follow-up period. The study aimed to determine the efficacy, safety and tolerability of 20 mg/kg/day cannabidiol compared with placebo.
The second study was a 1:1:1 randomised, double-blind, 14-week comparison of two dose levels of cannabidiol (10 mg/kg/day and 20 mg/kg/day) versus placebo. The treatment period consisted of a two-week titration period followed by a 12-week maintenance period. The treatment period was followed by a 10-day taper period and a four-week follow-up period. The study aimed to determine the efficacy, safety and tolerability of two dose levels of CBD-OS compared with placebo. Patients in the placebo group were split into two equivalent cohorts; half receiving 10 mg/kg/day dosing volumes and half receiving 20 mg/kg/day dosing volumes.
In order to ensure that caregivers were able to interpret a seizure correctly, all caregivers underwent pre-study training, and their description and classification of a seizure was independently verified by a committee appointed by the Epilepsy Study Consortium
Despite the number of medications, the patients were already taking, the median number of drop seizures at baseline was in excess of 75 per month in both studies. These were patient populations with a high unmet medical need, who had already tried and failed multiple AEDs. In many cases, the AEDs they were being maintained on included those approved for the treatment of LGS; rufinamide, lamotrigine or topiramate.
An analysis of the change in seizure frequency for CBD vs placebo in patients who were currently taking, or had previously taken and stopped, each of rufinamide, lamotrigine or topiramate; felbamate was undertaken. Such patients can be reasonably defined as AED treatment failures.

[2] = patients with epilepsy, open label study, Gaston et al. 2017; cited from earlier work
[3] = Felbamate treatment failures, 10 mg/kg/day, N = 22
[4] = Felbamate treatment failures, 10 mg/kg/day, N = 22, P-value 0.1921 vs placebo
[5] = Felbamate treatment failures, 20 mg/kg/day, N = 38
[6] = Felbamate treatment failures, 20 mg/kg/day, N = 38, P-value 0.0068 vs placebo
[7] = Lamotrigine treatment failures, 10 mg/kg/day, N = 49
[8] = Lamotrigine treatment failures, 10 mg/kg/day, N = 49, P-value 0.0131 vs placebo
[9] = Lamotrigine treatment failures, 20 mg/kg/day, N = 114
[10] = Lamotrigine treatment failures, 20 mg/kg/day, N = 114, P-value <0.0001 vs placebo
[11] = Rufinamide treatment failures, 10 mg/kg/day, N = 47
[12] = Rufinamide treatment failures, 10 mg/kg/day, N = 47, P-value 0.1836 vs placebo
[13] = Rufinamide treatment failures, 20 mg/kg/day, N = 95
[14] = Rufinamide treatment failures, 20 mg/kg/day, N = 95, P-value 0.0011 vs placebo
[15] = Topiramate treatment failures, 10 mg/kg/day, N = 56
[16] = Topiramate treatment failures, 10 mg/kg/day, N = 56, P-value 0.0517 vs placebo
[17] = Topiramate treatment failures, 20 mg/kg/day, N = 111
[18] = Topiramate treatment failures, 20 mg/kg/day, N = 111, P-value 0.0016 vs placebo
[19] = felbamate treatment failures, 20 mg/kg dose
[20] = lamotrigine treatment failures, both doses (10 and 20 mg/kg/day)
[21] = rufinamide treatment failures, 20 mg/kg/day dose

## C=C(C)[C@@H]1CCC(C)=C[C@H]1c1c(O)cc(CCCCC)cc1O [Cannabidiol]
[1]; CBD combined with rufinamide, lamotrigine, topiramate or felbamate
  reduction in drop and total seizure frequency in patients deemed to be treatment failures: statistically significant reduction
[1]; Felbamate treatment failures, 10 mg/kg/day, P-value 0.0282
  Total Seizure Frequency, Treatment Difference vs. Placebo: −21.77%
[1]; Felbamate treatment failures, 10 mg/kg/day, P-value 0.2984
  Drop Seizure Frequency, Treatment Difference vs. Placebo: −11.57%
[1]; [3]
  Drop Seizure Frequency, Treatment Period Median: 68.26 per 28 Days
  Total Seizure Frequency, Treatment Period Median: 103.09 per 28 Days
  Drop Seizure Frequency, Median % Change During Treatment: −30.50%
  Total Seizure Frequency, Median % Change During Treatment: −34.36%
[1]; [4]
  Number of Responders, ≥50% Reduction in Drop Seizure Frequency from Baseline: 6
  Responders (%), ≥50% Reduction in Drop Seizure Frequency from Baseline: 27.3%
[1]; Felbamate treatment failures, 20 mg/kg/day, P-value 0.0930
  Drop Seizure Frequency, Treatment Difference vs. Placebo: −17.76%
[1]; Felbamate treatment failures, 20 mg/kg/day, P-value 0.1179
  Total Seizure Frequency, Treatment Difference vs. Placebo: −14.58%
[1]; [5]
  Drop Seizure Frequency, Treatment Period Median: 47.32 per 28 Days
  Total Seizure Frequency, Treatment Period Median: 102.20 per 28 Days
  Drop Seizure Frequency, Median % Change During Treatment: −31.62%
  Total Seizure Frequency, Median % Change During Treatment: −27.56%
[1]; [6]
  Number of Responders, ≥50% Reduction in Drop Seizure Frequency from Baseline: 15
  Responders (%), ≥50% Reduction in Drop Seizure Frequency from Baseline: 39.5%
[1]; Lamotrigine treatment failures, 10 mg/kg/day, P-value 0.0040
  Drop Seizure Frequency, Treatment Difference vs. Placebo: −18.79%
[1]; Lamotrigine treatment failures, 10 mg/kg/day, P-value 0.0044
  Total Seizure Frequency, Treatment Difference vs. Placebo: −19.63%
[1]; [7]
  Drop Seizure Frequency, Treatment Period Median: 40.29 per 28 Days
  Total Seizure Frequency, Treatment Period Median: 68.41 per 28 Days
  Drop Seizure Frequency, Median % Change During Treatment: −37.16%
  Total Seizure Frequency, Median % Change During Treatment: −32.87%
[1]; [8]
  Number of Responders, ≥50% Reduction in Drop Seizure Frequency from Baseline: 17
  Responders (%), ≥50% Reduction in Drop Seizure Frequency from Baseline: 34.7%
[1]; Lamotrigine treatment failures, 20 mg/kg/day, P-value 0.0008
  Total Seizure Frequency, Treatment Difference vs. Placebo: −17.35%
[1]; Lamotrigine treatment failures, 20 mg/kg/day, P-value 0.0023
  Drop Seizure Frequency, Treatment Difference vs. Placebo: −19.24%
[1]; [9]
  Drop Seizure Frequency, Treatment Period Median: 36.30 per 28 Days
  Total Seizure Frequency, Treatment Period Median: 98.64 per 28 Days
  Drop Seizure Frequency, Median % Change During Treatment: −40.74%
  Total Seizure Frequency, Median % Change During Treatment: −34.44%
[1]; [10]
  Number of Responders, ≥50% Reduction in Drop Seizure Frequency from Baseline: 47
  Responders (%), ≥50% Reduction in Drop Seizure Frequency from Baseline: 41.2%
[1]; Rufinamide treatment failures, 10 mg/kg/day, P-value 0.0062
  Total Seizure Frequency, Treatment Difference vs. Placebo: −17.54%
[1]; Rufinamide treatment failures, 10 mg/kg/day, P-value 0.1314
  Drop Seizure Frequency, Treatment Difference vs. Placebo: −9.80%
[1]; [11]
  Drop Seizure Frequency, Treatment Period Median: 56.00 per 28 Days
  Total Seizure Frequency, Treatment Period Median: 95.51 per 28 Days
  Drop Seizure Frequency, Median % Change During Treatment: −32.95%
  Total Seizure Frequency, Median % Change During Treatment: −31.25%
[1]; [12]
  Number of Responders, ≥50% Reduction in Drop Seizure Frequency from Baseline: 13
  Responders (%), ≥50% Reduction in Drop Seizure Frequency from Baseline: 27.7%
[1]; Rufinamide treatment failures, 20 mg/kg/day, P-value 0.0008
  Total Seizure Frequency, Treatment Difference vs. Placebo: −19.43%
[1]; Rufinamide treatment failures, 20 mg/kg/day, P-value 0.0022
  Drop Seizure Frequency, Treatment Difference vs. Placebo: −19.34%
[1]; [13]
  Drop Seizure Frequency, Treatment Period Median: 42.30 per 28 Days
  Total Seizure Frequency, Treatment Period Median: 102.20 per 28 Days
  Drop Seizure Frequency, Median % Change During Treatment: −38.78%
  Total Seizure Frequency, Median % Change During Treatment: −34.90%
[1]; [14]
  Number of Responders, ≥50% Reduction in Drop Seizure Frequency from Baseline: 37
  Responders (%), ≥50% Reduction in Drop Seizure Frequency from Baseline: 38.9%
[1]; Topiramate treatment failures, 10 mg/kg/day, P-value 0.0047
  Total Seizure Frequency, Treatment Difference vs. Placebo: −17.04%
[1]; Topiramate treatment failures, 10 mg/kg/day, P-value 0.0074
  Drop Seizure Frequency, Treatment Difference vs. Placebo: −16.92%
[1]; [15]
  Drop Seizure Frequency, Treatment Period Median: 57.02 per 28 Days
  Total Seizure Frequency, Treatment Period Median: 88.31 per 28 Days
  Drop Seizure Frequency, Median % Change During Treatment: −36.08%
  Total Seizure Frequency, Median % Change During Treatment: −31.57%
[1]; [16]
  Number of Responders, ≥50% Reduction in Drop Seizure Frequency from Baseline: 17
  Responders (%), ≥50% Reduction in Drop Seizure Frequency from Baseline: 30.4%
[1]; Topiramate treatment failures, 20 mg/kg/day, P-value 0.0034
  Total Seizure Frequency, Treatment Difference vs. Placebo: −15.87%
[1]; Topiramate treatment failures, 20 mg/kg/day, P-value 0.0069
  Drop Seizure Frequency, Treatment Difference vs. Placebo: −16.83%
[1]; [17]
  Drop Seizure Frequency, Treatment Period Median: 44.00 per 28 Days
  Total Seizure Frequency, Treatment Period Median: 101.71 per 28 Days
  Drop Seizure Frequency, Median % Change During Treatment: −34.13%
  Total Seizure Frequency, Median % Change During Treatment: −33.76%
[1]; [18]
  Number of Responders, ≥50% Reduction in Drop Seizure Frequency from Baseline: 40
  Responders (%), ≥50% Reduction in Drop Seizure Frequency from Baseline: 36.0%
[1]; [19]
  proportion of patients with a 50% reduction in drop seizure frequency compared with placebo: statistically significantly greater proportion
  reduction in drop seizure frequency compared with placebo: marginally statistically significantly greater reduction
[1]; [20]
  proportion of patients with a 50% reduction in drop seizure frequency compared with placebo: significantly greater proportion
  reduction in both drop and total seizure frequency compared with placebo: significantly greater reduction
[1]; pooled data from two studies, effect most significant at 20 mg/kg/day
  benefit in patients taking without seizure control, or having stopped, the AEDs authorised for LGS in the EU: significant benefit
[1]; [21]
  proportion of patients with a 50% reduction in drop seizure frequency compared with placebo: significantly greater proportion
  reduction in drop and total seizure frequency compared with placebo: significantly greater reduction
[1]; topiramate treatment failures, both doses (10 and 20 mg/kg/day)
  reduction in both drop and total seizure frequency compared with placebo: significantly greater reduction
[1]; topiramate treatment failures, both doses, statistical significance for 20 mg/kg/day, only marginal for 10 mg/kg/day
  proportion of patients with a 50% reduction in drop seizure frequency compared with placebo: greater proportion
[2]
  serum levels of some AEDs in the presence of CBD: increased
